# Results published in PMC9320654 (Toxins, 2022).
# Counter-ions that a name gives are not always drawn.
# Key:
# [1] = Metabolic stability in cryopreserved hepatocytes, human; type: in vitro ADME
# Procedure: (§1) Hepatocyte metabolic stability was evaluated in cryopreserved hepatocytes from CD-1 mice (Lot#: EXR), Sprague Dawley rats (Lot#: OSQ), beagle dogs (Lot#: ZMB), cynomolgus monkeys (Lot#: KMS), and human donors (Lot#: AEL) obtained from Bioreclamation IVT, LLC (Shanghai, China). […] Samples were withdrawn from the reaction mixture at 0, 15, 30, 60, and 90 min and were quenched with stop solution (acetonitrile containing 200 ng/mL tolbutamide and 200 ng/mL labetalol as internal standards). A cocktail of 7-ethoxycoumarin (Lot#: I1825085) was used as the positive control for the assay. The analytical plates were sealed and stored at 4 °C until LC-MS/MS analysis.
# (§2) The remaining percentages of test articles after incubation were calculated by the following equations:(7) %Remainingat Appointed Time=Peak Area Ratios of Test Article versus Internal Standard at Appointed Time/Peak Area Ratios of Test Article versus Internal Standard 0 min
# (§3) We used the equation of first order kinetics to calculate T1/2 and CLint:
# (§4) Equation of first-order kinetics:(8) Ct=C0·e^−k·t when Ct=1/2C0,T1/2=ln2/k=0.693/k (9) CLint hep=k/million cells per mL (10) CLint liver=CLint hep×Liver weight g/kg body weight×hepatocellularity
# [2] = Metabolic stability in cryopreserved hepatocytes, dog; type: in vitro ADME, beagle dog
# Procedure: as §1, §2, §3, §4
# [3] = Metabolic stability in cryopreserved hepatocytes, monkey; type: in vitro ADME, cynomolgus monkey
# Procedure: as §1, §2, §3, §4
# [4] = Metabolic stability in cryopreserved hepatocytes, mouse; type: in vitro ADME, CD-1 mouse
# Procedure: as §1, §2, §3, §4
# [5] = Metabolic stability in cryopreserved hepatocytes, rat; type: in vitro ADME, Sprague Dawley rat
# Procedure: as §1, §2, §3, §4
# [6] = Plasma stability, dog plasma; type: in vitro ADME; settings: beagle
# Procedure: (§5) The pooled frozen plasma was thawed in a water bath at 37 °C prior to the experiment. Plasma was centrifuged at 4000 rpm for 5 min, and the clots, if any, were removed. Using an Apricot automation workstation, blank plasma (98 μL/well) was added to six 96-well reaction plates (Blank, T0, T10, T30, T60, and T120). An Apricot automation workstation was used to add working solution (2 μL/well, 100 μM) to all reaction plates except the Blank plate (T0, T10, T30, T60, and T120). All reaction plates containing mixtures of compound and plasma were incubated at 37 °C in a water bath. At the end of the incubation, 400 μL of stop solution (200 ng/mL tolbutamide and 200 ng/mL labetalol in acetonitrile) was added to precipitate the protein, and the mixture was mixed thoroughly. Samples were then vortexed and centrifuged (20 min, 4000 rpm, 4 °C). After centrifugation, an Apricot automation workstation was used to transfer 50 μL of supernatant into 100 μL of HPLC water. […] Each bioanalysis plate was sealed and shaken for 10 min prior to LC-MS/MS analysis. The % remaining test compound after incubation in plasma was calculated using the following equation:(11) % Remaining= PAR at appointed incubation time/PAR at T0 time×100 where PAR is the peak area ratio of analyte versus internal standard (IS).
# (§6) The appointed incubation time points are T0 (0 min), Tn (n = 0, 10, 30, 60, 120 min).
# [7] = Plasma stability, rat plasma; type: in vitro ADME
# Procedure: as §5, §6
# [8] = Metabolite identification by LC-UV-MS^n in rat liver microsomes; type: in vitro ADME; parameters: key: +: metabolite was detected in liver microsomes; -: metabolite was detected in liver microsomes; settings: BEA 10 µM, 37 °C, 60 min
# Procedure: (§7) The positive control, 7-ethoxycoumarin (7-EC) at 10 µM, was run concurrently to assess Phase I metabolic activities in liver microsomes. […] After incubation, the samples were analyzed by LC-UV-MS (Table S7). The structures of the metabolites were proposed based on the interpretation of their MS and MS2 data. The results are presented in Table 6 and Figure 6. %Total=Peak Area of a Releted Component/Peak Area of Total Releted Component×100%
# [9] = Metabolite identification by LC-UV-MS^n in monkey liver microsomes; type: in vitro ADME; parameters: key: +: metabolite was detected in liver microsomes; -: metabolite was not detected in liver microsomes; settings: BEA 10 µM, 37 °C, 60 min
# Procedure: as §7
# [10] = Metabolite identification by LC-UV-MS^n in dog liver microsomes; type: in vitro ADME; parameters: key: +: metabolite was detected in liver microsomes; -: metabolite was detected in liver microsomes; settings: BEA 10 µM, 37 °C, 60 min
# Procedure: as §7
# [11] = Metabolite identification by LC-UV-MS^n in mouse liver microsomes; type: in vitro ADME; parameters: key: +: metabolite was detected in liver microsomes; -: metabolite was detected in liver microsomes; settings: BEA 10 µM, 37 °C, 60 min
# Procedure: as §7
# [12] = Metabolite identification by LC-UV-MS^n in human liver microsomes; type: in vitro ADME; parameters: key: +: metabolite was detected in liver microsomes; -: metabolite was not detected in liver microsomes; settings: BEA 10 µM, 37 °C, 60 min
# Procedure: as §7
# [13] = Plasma stability, monkey plasma; type: in vitro ADME; settings: cynomolgus
# Procedure: as §5, §6
# [14] = Plasma stability, human plasma; type: in vitro ADME
# Procedure: as §5, §6
# [15] = Plasma stability, mouse plasma; type: in vitro ADME
# Procedure: as §5, §6
# CYP2C9 = target: T1, CYP2C9 (Homo sapiens, UniProt P11712); type: in vitro ADME; settings: CYP2C9 in HLM; positive control, final conc. 3 μM in Table S1
# T1 construct: tissue Corning or Xenotech; host or cells: human liver microsomes (mixed gender)
# T1 sequence (P11712 whole entry): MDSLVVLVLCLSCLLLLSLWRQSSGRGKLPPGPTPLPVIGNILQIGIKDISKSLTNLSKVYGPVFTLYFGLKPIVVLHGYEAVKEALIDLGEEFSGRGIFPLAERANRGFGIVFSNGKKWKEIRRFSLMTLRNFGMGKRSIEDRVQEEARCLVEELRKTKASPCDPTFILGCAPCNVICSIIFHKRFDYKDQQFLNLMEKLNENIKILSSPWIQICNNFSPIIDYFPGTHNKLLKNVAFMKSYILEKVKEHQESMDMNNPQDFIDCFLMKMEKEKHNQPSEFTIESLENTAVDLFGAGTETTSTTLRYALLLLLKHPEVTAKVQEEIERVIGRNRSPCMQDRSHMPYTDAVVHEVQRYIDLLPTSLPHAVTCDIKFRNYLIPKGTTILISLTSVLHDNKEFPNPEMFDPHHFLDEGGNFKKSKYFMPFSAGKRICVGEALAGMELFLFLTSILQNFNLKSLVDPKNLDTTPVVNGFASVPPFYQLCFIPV
# Procedure: A mixture of microsomes and substrates for each CYP isozyme were prepared individually in 100 mM potassium phosphate buffer at pH 7.4. […] The reaction mixture was incubated for 10 min, followed by the addition of 20 μL of 10 mM NADPH solution. […] At the appropriate time point, we terminated the reaction by adding 400 µL of cold stop solution (200 ng/mL tolbutamide and labetalol in acetonitrile). The samples were centrifuged at 4000 rpm for 20 min to precipitate the protein, and then detected by LC/MS/MS. XL fit was used to plot the percent of vehicle control versus the test compound concentrations and for nonlinear regression analysis of the data. The IC50 values were determined using 3- or 4-parameter logistic equations.
# [16] = Metabolic stability in liver microsomes, CLM; type: in vitro ADME, cynomolgus monkey
# Procedure: (§8) All incubations were performed at 37 °C in 100 mM potassium phosphate buffer in an orbital incubator. Various nicotinamide adenine dinucleotide phosphate (NADPH) concentrations were tried to optimize the method. […] Samples were withdrawn from the reaction mixture at different times (5, 15, 30, 45, and 60 min), and the reaction was terminated using acetonitrile. […] Each bioanalysis plate was sealed and shaken for 10 min prior to LC-MS/MS analysis (Table S6).
# [17] = Metabolic stability in liver microsomes, RLM; type: in vitro ADME, Sprague Dawley rat
# Procedure: (§9) All incubations were performed at 37 °C in 100 mM potassium phosphate buffer in an orbital incubator. Various nicotinamide adenine dinucleotide phosphate (NADPH) concentrations were tried to optimize the method. […]. The positive control compound testosterone was incubated in parallel with the BEA samples. Each bioanalysis plate was sealed and shaken for 10 min prior to LC-MS/MS analysis (Table S6). […]
# [18] = Metabolic stability in liver microsomes, MLM; type: in vitro ADME, CD-1 mouse
# Procedure: as §8
# [19] = Metabolic stability in liver microsomes, DLM; type: in vitro ADME, beagle dog
# Procedure: as §9
# [20] = Plasma protein binding (HTdialysis equilibrium dialysis), dog plasma; type: in vitro ADME; settings: beagle, pH 7.4, read-out: Fu (%), unbound fraction
# [21] = Plasma protein binding (HTdialysis equilibrium dialysis), rat plasma; type: in vitro ADME; settings: Sprague Dawley, pH 7.4, read-out: Fu (%), unbound fraction
# [22] = Plasma protein binding (HTdialysis equilibrium dialysis), mouse plasma; type: in vitro ADME, CD-1 mouse; settings: CD-1, pH 7.4, read-out: Fu (%), unbound fraction
# [23] = Plasma protein binding (HTdialysis equilibrium dialysis), monkey plasma; type: in vitro ADME, cynomolgus monkey; settings: pH 7.4, read-out: Fu (%), unbound fraction
# CYP3A4/5 = settings: ref 20 (Li Mei's group); cited from earlier work
# [24] = 120 min, read-out: Remaining % (T = 120 min)
compound,measurement,setting,value
CCOc1ccc2ccc(=O)oc2c1 [7-Ethoxycoumarin],half-life at 1 μM,"[1]; cryopreserved hepatocytes (suspension), human hepatocytes, 0.5 × 10^6 cells/mL, 1 μM, n = 2",41.6 min
same,"remaining at 1.5 h, 1 μM","[1]; cryopreserved hepatocytes in suspension, human hepatocytes, 90 min, read-out: Remaining % (T = 90 min)",21.9%
same,CLint scaled at 1 μM,"[1]; cryopreserved hepatocytes in suspension, scaled from human hepatocyte CLint, read-out: CLint (liver)",92.6 mL/min/kg
same,CLint (hep) (μL/min/10^6),[1]; human hepatocytes,33.3 μL/min/10^6
same,half-life at 1 μM,"[2]; beagle, cryopreserved hepatocytes in suspension, dog hepatocytes, 0.5 × 10^6 cells/mL, 1 μM, n = 2",5.4 min
same,CLint scaled at 1 μM,"[2]; beagle, cryopreserved hepatocytes in suspension, scaled from dog hepatocyte CLint, read-out: CLint (liver)",1760 mL/min/kg
same,CLint (hep) (μL/min/10^6),[2]; dog hepatocytes,256.4 μL/min/10^6
same,Remaining % (T = 90 min),"[2]; dog hepatocytes, 90 min",0.0%
same,half-life at 1 μM,"[3]; cryopreserved hepatocytes in suspension, monkey hepatocytes, 0.5 × 10^6 cells/mL, 1 μM, n = 2",13.6 min
same,CLint scaled at 1 μM,"[3]; cynomolgus monkey, cryopreserved hepatocytes in suspension, scaled from monkey hepatocyte CLint, read-out: CLint (liver)",367 mL/min/kg
same,CLint (hep) (μL/min/10^6),[3]; monkey hepatocytes,102.0 μL/min/10^6
same,Remaining % (T = 90 min),"[3]; monkey hepatocytes, 90 min",0.0%
same,half-life at 1 μM,"[4]; CD-1, cryopreserved hepatocytes (suspension), mouse hepatocytes, 0.5 × 10^6 cells/mL, 1 μM, n = 2",< 7.5 min
same,CLint scaled at 1 μM,"[4]; CD-1, cryopreserved hepatocytes in suspension, scaled from mouse hepatocyte CLint, read-out: CLint (liver)",> 2200 mL/min/kg
same,CLint (hep) (μL/min/10^6),[4]; mouse hepatocytes,>184.8 μL/min/10^6
same,Remaining % (T = 90 min),"[4]; mouse hepatocytes, 90 min",0.0%
same,half-life at 1 μM,"[5]; Sprague Dawley, cryopreserved hepatocytes (suspension), rat hepatocytes, 0.5 × 10^6 cells/mL, 1 μM, n = 2",18.2 min
same,"remaining at 1.5 h, 1 μM","[5]; Sprague Dawley, cryopreserved hepatocytes in suspension, rat hepatocytes, 90 min, read-out: Remaining % (T = 90 min)",2.1%
same,CLint scaled at 1 μM,"[5]; Sprague Dawley, cryopreserved hepatocytes in suspension, scaled from rat hepatocyte CLint, read-out: CLint (liver)",356 mL/min/kg
same,CLint (hep) (μL/min/10^6),[5]; rat hepatocytes,76.0 μL/min/10^6
CC(=O)Oc1ccc(C(c2ccc(OC(C)=O)cc2)c2ccccn2)cc1 [Bisacodyl],half-life at 2 μM,"[6]; 37 °C, n = 2",7.2 min
same,"remaining at 2 h, 2 μM",[6]; [24],0%
CCOC(=O)[C@H](CCc1ccccc1)N[C@@H](C)C(=O)N1CCC[C@H]1C(=O)O.O=C(O)/C=C\C(=O)O [Enalapril maleate salt],T1/2,"[7]; 37 °C, n = 2",12.8 min
same,Remaining % (T = 120 min),[7]; 120 min,0.2%
CC(C)[C@H]1OC(=O)[C@H](Cc2ccccc2)N(C)C(=O)[C@@H](C(C)C)OC(=O)[C@H](Cc2ccccc2)N(C)C(=O)[C@@H](C(C)C)OC(=O)[C@H](Cc2ccccc2)NC1=O [M15],Detected in liver microsomes: Rat,[8],+
same,Detected in liver microsomes: Monkey,[9],+
same,Detected in liver microsomes: Dog,[10],+
same,Detected in liver microsomes: Mouse,[11],+
same,Detected in liver microsomes: Human,[12],+
CCN(CC)CCOC(=O)c1ccc(N)cc1 [Procaine Hydrochloride],half-life at 2 μM,"[13]; 37 °C, n = 2",4.4 min
same,"remaining at 2 h, 2 μM",[13]; [24],0%
CC(C)[N+](C)(CCOC(=O)C1c2ccccc2Oc2ccccc21)C(C)C [Propantheline bromide],half-life at 2 μM,"[14]; 37 °C, n = 2",10.3 min
same,"remaining at 2 h, 2 μM",[14]; [24],0%
same,half-life at 2 μM,"[15]; CD-1, 37 °C, n = 2",36.6 min
same,"remaining at 2 h, 2 μM","[15]; CD-1, 120 min, read-out: Remaining % (T = 120 min)",9.7%
Nc1ccc(S(=O)(=O)Nc2ccnn2-c2ccccc2)cc1 [Sulfaphenazole],Activity (% VC),CYP2C9,20.0 % VC
C[C@]12CC[C@H]3[C@@H](CCC4=CC(=O)CC[C@@]43C)[C@@H]1CC[C@@H]2O [Testosterone],Remaining % (T = 60 min),"[16]; CLM, 60 min",0.0%
same,half-life at 1 μM,"[16]; cynomolgus monkey, liver microsomes, CLM, 1 μM, NADPH, n = 2",5 min
same,microsomal CLint at 1 μM,"[16]; cynomolgus monkey, liver microsomes, CLM, read-out: CLint(mic)",277 µL/min/mg
same,CLint scaled at 1 μM,"[16]; cynomolgus monkey, liver microsomes, scaled from CLM CLint(mic)",374 mL/min/kg
same,Remaining % (T = 60 min),"[17]; RLM, 60 min",0.0%
same,microsomal CLint at 1 μM,"[17]; Sprague Dawley, rat, microsomes, RLM, read-out: CLint(mic)",1370 µL/min/mg
same,CLint scaled at 1 μM,"[17]; Sprague Dawley, rat, microsomes, scaled from RLM CLint(mic)",2470 mL/min/kg
same,half-life at 1 μM,"[18]; CD-1, mouse, liver microsomes, MLM, 1 μM, NADPH, n = 2",3.9 min
same,microsomal CLint at 1 μM,"[18]; CD-1, mouse, liver microsomes, MLM, read-out: CLint(mic)",359 µL/min/mg
same,CLint scaled at 1 μM,"[18]; CD-1, mouse, liver microsomes, scaled from MLM CLint(mic)",1420 mL/min/kg
same,Remaining % (T = 60 min),"[18]; MLM, 60 min",0.0%
same,T1/2,"[19]; DLM, 1 μM, NADPH, n = 2",20.0 min
same,microsomal CLint at 1 μM,"[19]; beagle, dog, microsomes, DLM, read-out: CLint(mic)",69.2 µL/min/mg
same,CLint scaled at 1 μM,"[19]; beagle, dog, microsomes, scaled from DLM CLint(mic)",99.6 mL/min/kg
CC(=O)CC(c1ccccc1)c1c(O)c2ccccc2oc1=O (stereo not shown) [warfarin],fraction unbound at 5 h,[20],0.0246
same,fraction unbound at 5 h,[21],0.0052
same,fraction unbound at 5 h,[22],0.0271
same,fraction unbound at 5 h,[23],0.0084
Beauvericin,"Inhibition mechanism, CYP3A4",CYP3A4/5,mix-type
